PMC9699003, “Arene Variation of Highly Cytotoxic Tridentate Naphthoquinone-Based Ruthenium(II) Complexes and In-Depth In Vitro Studies” (Pharmaceutics, 2022)
Like-named read-outs stand apart in the source and are kept apart here.

How the values were obtained:
[1] = test system: A549 non-small cell lung cancer cells; conditions: A549, MTT, 96 h exposure; cited from earlier work
[2] = test system: SW480 colon carcinoma cells; conditions: SW480, MTT, 96 h exposure; cited from earlier work
[3] = test system: CH1/PA-1 ovarian teratocarcinoma cells; conditions: CH1/PA-1, MTT, 96 h exposure; cited from earlier work
[4] = test system: A549 non-small cell lung cancer cells; experiment: MTT assay (cytotoxicity); format: cell-based, human; conditions: 96 h exposure
Procedure: (§1) CH1/PA-1 ovarian teratocarcinoma cells (provided by L. R. Kelland, CRC Centre for Cancer Therapeutics, Institute of Cancer Research, Sutton, UK; confirmed by STR profiling as PA-1 ovarian teratocarcinoma cells at Multiplexion, Heidelberg, Germany), SW480 colon carcinoma and A549 non-small cell lung cancer cells (both obtained from the American Type Culture Collection, Manassas, VA, USA) were grown as adherent cultures in 75 cm² culture flasks (CytoOne, Starlab, Hamburg, Germany) by using minimal essential medium (MEM) supplemented with 1 mM sodium pyruvate, 4 mM L-glutamine, 1% (v/v) nonessential amino acids from 100-fold stock (all purchased from Sigma-Aldrich) and 10% heat-inactivated fetal bovine serum (BioWest, Nuaillé, France). Cells were maintained under standard culture conditions with 5% CO2 at 37 °C in a humidified atmosphere.
(§2) The 3-(4,5-dimethylthiazol-2-yl)-2,5-diphenyl-2H-tetrazolium bromide (MTT, Acros Organics, Geel, Belgium) assay was used to detect the cytotoxicity of the compounds after 24 h and 96 h incubation. In brief, cells were harvested from culture flasks and the following cell numbers (each in 100 µL) were seeded into 96-well culture plates (CytoOne, tissue culture treated, Starlab, Hamburg, Germany) for 24 h incubation: 1 × 10^4 (CH1/PA-1), 1 × 10^4 (SW480) and 1.5 × 10^4 (A549) cells per well; and for 96 h incubation: 1 × 10^3 (CH1/PA-1), 2 × 10^3 (SW480) and 3 × 10^3 (A549) cells per well. After 24 h, cells resuming their exponential growth rate were treated with test compounds at nine concentrations obtained by serial two-fold dilution. Stock solutions were prepared in DMSO (20 mM or 40 mM) and diluted in supplemented MEM. An amount of 100 µL of each concentration was added to the plates in triplicates and cells were exposed for 24 or 96 h. Afterward, the medium was replaced with 100 µL of MTT solution (5 mg/mL) in phosphate-buffered saline (PBS, Sigma-Aldrich), diluted 1:7 in RPMI 1640 medium (supplemented with 4 mM L-glutamine and 10% heat-inactivated FBS). Upon cell-viability-dependent conversion of the yellow, water-soluble tetrazolium salt into purple formazan products for 4 h, the crystals were dissolved in 150 µL DMSO. The absorbance of the resulting solutions, which is directly proportional to the number of viable cells, was measured at 550 nm (and at 690 nm as a reference) with a microplate reader (ELx808, BioTek, Winoosky, VT, USA) and Gen5TM 3.08 software (BioTek). Blank-corrected optical densities were subjected to graphical evaluation and interpolation of IC50 values. At least three biologically and technically independent experiments were performed.

[5] = test system: CH1/PA-1 ovarian teratocarcinoma cells; experiment: MTT assay (cytotoxicity); format: cell-based, human; conditions: CH1/PA-1, MTT, 96 h exposure
Procedure: as §1, §2

[6] = test system: SW480 colon carcinoma cells; experiment: MTT assay (cytotoxicity); format: cell-based, human; conditions: 96 h exposure
Procedure: as §1, §2

SMILES	IC50 [1] [µM]	IC50 [2] [µM]	IC50 [3] [µM]	IC50 [4] [µM]	IC50 [5] [nM]	IC50 [6] [nM]
O=C1[O][Pt]2([NH][C@@H]3CCCC[C@H]3[NH]2)[O]C1=O [Oxaliplatin]	0.98 ± 0.21	0.29 ± 0.05	0.18 ± 0.01			
N.N.O=C([O-])C1(C(=O)[O-])CCC1.[Pt+2] [Carboplatin]	38 ± 3	42 ± 10	0.79 ± 0.11			
[Cl][Ru-]1[Cl+][Ru-]([Cl])[Cl+]1.c1ccc2c(c1)CCC2.c1ccc2c(c1)CCC2 [[Ru(indane)Cl2]2]	257 ± 66	166 ± 35	51 ± 13			
[Cl][Ru][Cl].[Cl][Ru][Cl].c1ccccc1.c1ccccc1 [[Ru(benzene)Cl2]2]	> 100	> 100	> 100			
N.N.[Cl][Pt][Cl] [Cisplatin, reference compound]				3.8 ± 1	73 ± 1	2300 ± 200
Cc1ccccc1.Cc1ccccc1.[Cl][Ru-]1[Cl+][Ru-]([Cl])[Cl+]1 [[Ru(toluene)Cl2]2]	> 100	> 100	> 100			
